The values that follow come from the SangsterLogP compilation.

This data set can be described thus: method code SF-AS, from DOI: 10.1016/s0006-291x(89)80063-4, PMID: 2916990. The conditions noted are these: pH 7.5.
In general, logD refers to the decadic logarithm of the distribution of all forms, ionised or not, between an organic phase and buffer at a given pH. Higher therefore signals a more lipophilic compound. `Nc1nc2c(ncn2[C@H]2C=C[C@@H](CO)O2)c(=O)[nH]1`: the logD is -1.21. For `O=c1[nH]c(=O)n([C@H]2CC[C@@H](CO)O2)cc1Br` the value was -0.99. In the case of `O=c1[nH]c(=O)n([C@H]2CC[C@@H](CO)O2)cc1I` it was -0.61.

For `[N-]=[N+]=N[C@H]1C[C@H](n2cnc3c(N)ncnc32)O[C@@H]1CO`, the logD was 0.35.

In the case of `Nc1nc2c(ncn2[C@H]2CC[C@@H](CO)O2)c(=O)[nH]1`, the logD was -1.01. For `O=c1[nH]c(=O)n([C@H]2C[C@H](F)[C@@H](CO)O2)cc1Cl` the value was -0.17. In the case of `O=c1[nH]c(=O)n([C@H]2C[C@H](F)[C@@H](CO)O2)cc1Br`, the logD was -0.04. In the case of `Nc1nc2c(ncn2[C@H]2C[C@H](F)[C@@H](CO)O2)c(=O)[nH]1` it was -0.66; in that of `[N-]=[N+]=N[C@H]1C[C@H](n2cnc3c(=O)[nH]c(N)nc32)O[C@@H]1CO`, -0.33; in that of `Nc1nc(N)c2ncn([C@H]3CC(F)[C@@H](CO)O3)c2n1` (stereo partly specified), 0.05.

With `O=c1ccn(C2CCC(CO)O2)c(=O)[nH]1` (stereo unspecified), the logD was -0.89.

For `Nc1ncnc2c1ncn2[C@H]1C=C[C@@H](CO)O1`, the pH-dependent lipophilicity (logD) was -0.36. `[N-]=[N+]=N[C@H]1C[C@H](n2cnc3c(N)nc(N)nc32)O[C@@H]1CO` had a logD of 0.24.

Turning to `[N-]=[N+]=N[C@@H]1[C@H](N=[N+]=[N-])[C@@H](CO)O[C@H]1n1cnc2c(N)ncnc21`, the logD turned out to be 0.8.

Regarding `[N-]=[N+]=N[C@H]1C[C@H](n2ccc(N)nc2=O)O[C@@H]1CO`, the logD was -0.64. For `Nc1nc(N)c2ncn([C@H]3C[C@H](O)[C@@H](CO)O3)c2n1` the value was -0.52; for `O=c1ccn([C@H]2C=C[C@@H](CO)O2)c(=O)[nH]1`, -1.07. With `O=c1ccn([C@H]2C[C@H](F)[C@@H](CO)O2)c(=O)[nH]1`, the logD was -0.49. For `O=c1ccn([C@H]2C[C@H](O)[C@@H](CO)O2)c(=O)[nH]1` the value was -1.51.

For `O=c1[nH]c(=O)n([C@H]2CC[C@@H](CO)O2)cc1Cl`, the logD was -1.11. In the case of `Nc1ncnc2c1ncn2[C@H]1C[C@H](F)[C@@H](CO)O1` it was 0.08.
